In ChEMBL document CHEMBL2074003, “Transport of somatostatin and substance P by human P-glycoprotein” (FEBS Lett, 2004):

Columns and labels:
[1] = biological target: T1, ATP-dependent translocase ABCB1 (Homo sapiens, UniProt P08183); experiment: TP_TRANSPORTER: uptake in membrane vesicles prepared from K562/ADM cells; format: functional, cell membranes, Membrane vesicle; details: k562/adr
[2] = biological target: T1, ATP-dependent translocase ABCB1; experiment: TP_TRANSPORTER: uptake in membrane vesicles prepared from human MDR1 transfected KB3-1 cells; format: functional, cell membranes, Membrane vesicle; details: kb 3-1

T1 sequence (P08183 whole entry): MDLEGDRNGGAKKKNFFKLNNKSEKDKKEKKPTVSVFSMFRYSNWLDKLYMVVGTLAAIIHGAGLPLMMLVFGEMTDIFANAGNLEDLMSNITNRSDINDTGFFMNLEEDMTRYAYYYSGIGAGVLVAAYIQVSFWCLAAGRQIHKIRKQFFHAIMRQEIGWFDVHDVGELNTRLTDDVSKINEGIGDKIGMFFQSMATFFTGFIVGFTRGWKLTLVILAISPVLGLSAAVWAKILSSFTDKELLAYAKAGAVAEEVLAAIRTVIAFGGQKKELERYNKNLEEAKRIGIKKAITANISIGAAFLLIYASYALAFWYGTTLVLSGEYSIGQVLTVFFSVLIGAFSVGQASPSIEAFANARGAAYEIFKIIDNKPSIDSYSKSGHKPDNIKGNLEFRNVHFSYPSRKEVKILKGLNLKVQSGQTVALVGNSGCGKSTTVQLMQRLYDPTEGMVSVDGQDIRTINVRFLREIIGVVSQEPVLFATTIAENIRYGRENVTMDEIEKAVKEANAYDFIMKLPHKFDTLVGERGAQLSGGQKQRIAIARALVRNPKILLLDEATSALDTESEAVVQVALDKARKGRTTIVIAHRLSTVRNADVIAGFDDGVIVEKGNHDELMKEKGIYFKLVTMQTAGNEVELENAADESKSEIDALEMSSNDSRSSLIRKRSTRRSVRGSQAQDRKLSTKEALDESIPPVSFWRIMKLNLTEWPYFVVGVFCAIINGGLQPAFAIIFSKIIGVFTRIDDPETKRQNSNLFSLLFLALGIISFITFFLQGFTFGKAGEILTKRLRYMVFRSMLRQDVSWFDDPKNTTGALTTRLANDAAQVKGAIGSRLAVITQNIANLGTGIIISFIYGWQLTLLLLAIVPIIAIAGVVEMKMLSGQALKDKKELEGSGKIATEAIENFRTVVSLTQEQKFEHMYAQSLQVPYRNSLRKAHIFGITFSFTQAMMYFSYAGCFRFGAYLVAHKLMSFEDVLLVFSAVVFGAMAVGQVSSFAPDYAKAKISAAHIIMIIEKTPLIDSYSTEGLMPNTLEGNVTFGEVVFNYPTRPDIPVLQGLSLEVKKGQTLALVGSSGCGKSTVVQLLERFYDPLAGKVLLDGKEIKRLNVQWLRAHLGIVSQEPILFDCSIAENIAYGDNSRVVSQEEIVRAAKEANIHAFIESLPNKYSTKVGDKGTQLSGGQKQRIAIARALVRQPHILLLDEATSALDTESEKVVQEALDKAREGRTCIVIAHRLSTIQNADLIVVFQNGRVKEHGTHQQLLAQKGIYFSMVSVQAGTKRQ

| Structure (SMILES) | Activity [1] | Activity [2] |
| --- | --- | --- |
| C[C@H](N)C(=O)NCC(=O)N[C@H]1CSSC[C@@H](C(=O)O)NC(=O)[C@H](CO)NC(=O)[C@H]([C@@H](C)O)NC(=O)[C@H](Cc2ccccc2)NC(=O)[C@H]([C@@H](C)O)NC(=O)[C@H](CCCCN)NC(=O)[C@H](Cc2c[nH]c3ccccc23)NC(=O)[C@H](Cc2ccccc2)NC(=O)[C@H](Cc2ccccc2)NC(=O)[C@H](CC(N)=O)NC(=O)[C@H](CCCCN)NC1=O [SOMATOSTATIN] | substrate [+] | substrate [+] |
| CSCC[C@H](NC(=O)[C@H](CC(C)C)NC(=O)CNC(=O)[C@H](Cc1ccccc1)NC(=O)[C@H](Cc1ccccc1)NC(=O)[C@H](CCC(N)=O)NC(=O)[C@H](CCC(N)=O)NC(=O)[C@@H]1CCCN1C(=O)[C@H](CCCCN)NC(=O)[C@@H]1CCCN1C(=O)[C@@H](N)CCCN=C(N)N)C(N)=O [SUBSTANCE P] | substrate [+] | substrate [+] |
